Results on four compounds are retold here after PubChem BioAssay AID1845207 (Molecular Pharmacology Branch, DTP, NCI, 2023).

The assay has as its system NCI-H1876 tumor spheroid viability. Kind of assay: Anticancer human tumor NCI-H1876 cell line growth inhibition.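 As to all read-outs here: spheroids exposed to compounds for seven days before the viability read.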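 As to viability, T/C: percent of DMSO vehicle control viability so 100% = vehicle.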 Conditions: spheroids with HUVEC and MSC; for viability, T/C: stronger effect = lower value. An outline of the steps: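 Complex tumor spheroids combined malignant cells with endothelial cells and mesenchymal stem cells. DNA-damaging drugs and DNA repair inhibitors were tested alone and in combination, at half-log dilutions down from clinical Cmax (top 10 microM if Cmax unknown), 0.25% DMSO final.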

Where “and” joins values, the source holds several entries; their conditions need not be identical. Equal values may be shown once.

On to `CC(C)n1c(=O)n(C)c2cnc3cc(F)c(-c4ccc(OCCCN5CCCCC5)nc4)cc3c21` + Cn1nnc2c(C(N)=O)ncn2c1=O, for which the IC50 is 411 nM (curve of first compound, second compound 1 µM); 517 nM (curve of first compound, second compound 3.16 µM); 571 nM (curve of first compound, second compound 10 µM); 623 nM (curve of first compound, second compound 31.6 µM); 176 nM (curve of first compound, second compound 100 µM). Also, the viability, T/C reads like this: (second compound 1 µM, first compound 0.0316 µM) 87%; (second compound 1 µM, first compound 0.1 µM) 68.1%; (second compound 1 µM, first compound 0.316 µM) 51.6%; (second compound 1 µM, first compound 1 µM) 39.2%; (second compound 1 µM, first compound 3.16 µM) 27.7%; (second compound 1 µM, first compound 10 µM) 12.1%. Moreover, the viability, T/C reads like this: (second compound 3.16 µM, first compound 0.0316 µM) 88.9%; (second compound 3.16 µM, first compound 0.1 µM) 70.7%; (second compound 3.16 µM, first compound 0.316 µM) 54.7%; (second compound 3.16 µM, first compound 1 µM) 42.6%; (second compound 3.16 µM, first compound 3.16 µM) 29.6%; (second compound 3.16 µM, first compound 10 µM) 12.8%. The viability, T/C runs as follows: (second compound 10 µM, first compound 0.0316 µM) 85.5%; (second compound 10 µM, first compound 0.1 µM) 68.6%; (second compound 10 µM, first compound 0.316 µM) 55.4%; (second compound 10 µM, first compound 1 µM) 41.6%; (second compound 10 µM, first compound 3.16 µM) 36.1%; (second compound 10 µM, first compound 10 µM) 11.4%. Moreover, the viability, T/C runs as follows: (second compound 31.6 µM, first compound 0.0316 µM) 84.8%; (second compound 31.6 µM, first compound 0.1 µM) 72.5%; (second compound 31.6 µM, first compound 0.316 µM) 58.7%; (second compound 31.6 µM, first compound 1 µM) 42.8%; (second compound 31.6 µM, first compound 3.16 µM) 29.7%; (second compound 31.6 µM, first compound 10 µM) 12.8%. Besides, the viability, T/C was 62.4% (second compound 100 µM, first compound 0.0316 µM); 55.2% (second compound 100 µM, first compound 0.1 µM); 43.2% (second compound 100 µM, first compound 0.316 µM); 35.3% (second compound 100 µM, first compound 1 µM); 25.9% (second compound 100 µM, first compound 3.16 µM); 10.2% (second compound 100 µM, first compound 10 µM).
With `Cn1ncnc1[C@H]1c2n[nH]c(=O)c3cc(F)cc(c23)N[C@@H]1c1ccc(F)cc1`, the viability, T/C was 88.9% and 68.4% and 87.4% (compound 0.00949 µM); 73.5% and 65.7% and 71.3% (compound 0.03 µM); 52.3% and 49.7% and 39.4% (compound 0.0949 µM); 28.3% and 25.2% and 21.1% (compound 0.3 µM); 0.28% and 7.28% and 3.57% (compound 3 µM). The IC50 (curve of compound) is 104 nM and 84.6 nM and 67.4 nM.
In the case of `Cn1ncnc1[C@H]1c2n[nH]c(=O)c3cc(F)cc(c23)N[C@@H]1c1ccc(F)cc1` + CC[C@@]1(O)C(=O)OCc2c1cc1n(c2=O)Cc2cc3c(CN(C)C)c(O)ccc3nc2-1, the IC50 reads like this: (curve of first compound, second compound 0.003 µM) 57.9 nM; (curve of first compound, second compound 0.00949 µM) less than 9.49 nM; (curve of first compound, second compound 0.03 µM) less than 9.49 nM; (curve of first compound, second compound 0.0949 µM) less than 9.49 nM; (curve of first compound, second compound 0.3 µM) less than 9.49 nM. The viability, T/C (second compound 0.003 µM, first compound 0.00949 µM) is 71%; the viability, T/C (second compound 0.003 µM, first compound 0.03 µM) was 60.4%; the viability, T/C (second compound 0.003 µM, first compound 0.0949 µM) is 36%; the viability, T/C (second compound 0.003 µM, first compound 0.3 µM) is 39.9%; the viability, T/C (second compound 0.003 µM, first compound 0.949 µM) was 6.31%; the viability, T/C (second compound 0.003 µM, first compound 3 µM) was 0.18%. Besides, the viability, T/C is, setting by setting: (second compound 0.00949 µM, first compound 0.00949 µM) 44.6%; (second compound 0.00949 µM, first compound 0.03 µM) 37.4%; (second compound 0.00949 µM, first compound 0.0949 µM) 29%; (second compound 0.00949 µM, first compound 0.3 µM) 19.4%; (second compound 0.00949 µM, first compound 0.949 µM) 6.41%; (second compound 0.00949 µM, first compound 3 µM) 0.15%. In addition, the viability, T/C was 14.9% (second compound 0.03 µM, first compound 0.00949 µM); 28.7% (second compound 0.03 µM, first compound 0.03 µM); 18.9% (second compound 0.03 µM, first compound 0.0949 µM); 18% (second compound 0.03 µM, first compound 0.3 µM); 5.53% (second compound 0.03 µM, first compound 0.949 µM); 0.13% (second compound 0.03 µM, first compound 3 µM). The viability, T/C by setting is: (second compound 0.0949 µM, first compound 0.00949 µM) 9.15%; (second compound 0.0949 µM, first compound 0.03 µM) 28.8%; (second compound 0.0949 µM, first compound 0.0949 µM) 10.8%; (second compound 0.0949 µM, first compound 0.3 µM) 10.3%; (second compound 0.0949 µM, first compound 0.949 µM) 3.73%; (second compound 0.0949 µM, first compound 3 µM) 0.14%. The viability, T/C runs as follows: (second compound 0.3 µM, first compound 0.00949 µM) 3.72%; (second compound 0.3 µM, first compound 0.03 µM) 3.65%; (second compound 0.3 µM, first compound 0.0949 µM) 3.75%; (second compound 0.3 µM, first compound 0.3 µM) 3.83%; (second compound 0.3 µM, first compound 0.949 µM) 1.56%; (second compound 0.3 µM, first compound 3 µM) 13.9%.
`CNCc1ccc(-c2cc(-c3nc(-c4ccc(S(=O)(=O)C(C)C)cc4)cnc3N)on2)cc1`: the viability, T/C is 97.7% and 86.9% and 104% (compound 0.00949 µM); 76.6% and 72.2% and 99.9% (compound 0.03 µM); 59.2% and 49.9% and 105% (compound 0.0949 µM); 31.1% and 27.1% and 92.3% (compound 0.3 µM); 16.1% and 10.4% and 48.3% (compound 0.949 µM); 10.2% and 0.26% and 20.5% (compound 3 µM). In addition, for the setting “curve of compound”, the IC50 was 126 nM and 95.3 nM and 906 nM.

By IC50 is commonly meant the point on the concentration scale where inhibition reaches its midpoint. For orientation: viability, T/C means the ratio of treated to control.
